# Assays:
# [1] = target: His-tagged Bcl-2 protein (Homo sapiens, UniProt P10415); assay: Competitive Bcl-2 ELISA binding assay (Bim peptide / His-tagged Bcl-2); conditions: for IC50: competition with biotinylated Bim peptide for His-tagged Bcl-2, mean ± SEM of three independent experiments; for Bcl-2 binding activity in the ELISA assay: competitive ELISA, Bim peptide
# Experimental: Compounds were evaluated according to their ability to compete with the pro-apoptotic BH3 domain Bim peptide for binding to His-tagged Bcl-2 protein, with a readout from anti-His secondary antibody conjugated to HRP (horseradish peroxidase) enzyme that produces a colorimetric readout in the presence of o-phenylenediamine (competitive ELISA assay).
# The ELISA assay to determine the ability of test compounds (10-fold dilution series) to compete with the interaction between biotinylated Bim peptide and His-tagged Bcl-2 protein was carried out according to our previously published protocol. The addition of anti-His antibody containing horseradish peroxidase enzyme, followed by the addition of o-phenylenediamine and hydrogen peroxide, allowed for the determination of optical density, using a plate reader (450 nm). The experiments were carried out on three separate occasions, including both negative and positive controls. A plot of log μM concentration for each inhibitor against the percentage reduction in affinity for the Bim peptide was created, using non-linear regression curve analysis (GraphPad Prism 5, San Diego, CA, USA) and the software used to generate the IC50 value for the Bcl-2 inhibitor.
# [2] = test system: HeLa (cervical) cells; assay: MTT anti-proliferative assay, HeLa; type: cell-based, human; conditions: 72 h incubation, Bcl-2 expressing, mean of three independent experiments ±SEM
# Experimental: (§1) Evaluation of anti-proliferative activity for the new 2-(1H-indol-3-yl)-5-substituted-1,3,4-oxadiazoles (4a–m) was carried out in Bcl-2-expressing human metastatic breast (MDA-MB-231) and cervical (HeLa) cancer cell lines, using the MTT endpoint assay, following 72 h incubation of test compound, according to previously established protocols. Further analysis within the non-adherent leukemic cell lines KG1a (acute myelogenous leukemia, Bcl-2 +ve) and Jurkat (T-cell leukemia, Bcl-2 −ve,) was carried out by using the CellTiter-Blue® assay according to published precedent.
# (§2) Human breast cancer (MDA-MB-231) and cervical cancer (HeLa) cells, obtained from the ATCC (Manassas, VA, USA), were cultured and maintained as previously described. For each experiment, 3000 cells in 0.2 mL of medium were seeded into each well of a clear flat-bottomed 96-well plate and allowed to adhere for 24 h. The cells were then incubated with the test compound (from 10 mM stock in DMSO), over a 10-fold dilution series, with concentrations ranging from 0.00001 to 100 μM and each diluent being performed in triplicate. Cells were incubated with the test compound for 72 h, followed by treatment with 3-[4,5-dimethylthiazol-2-yl]-2,5-diphenyl tetrazolium bromide (MTT) solution and reading of absorbance (automated microplate) according to our previous protocol. Mean IC50 values were obtained by using GraphPad Prism 5 software (San Diego, CA, USA). For each concentration, three independent repeat experiments were carried out to establish reproducibility.
# [3] = test system: Jurkat (T-cell leukemia) cells; assay: CellTiter-Blue cell viability assay, Jurkat; type: cell-based, human; conditions: for IC50: CellTitre-Blue assay, 24 h incubation, Bcl-2 −ve, mean of three independent experiments ±SEM
# Experimental: as §1
# (§3) Human acute myeloid leukemia KG1a and acute T-cell lymphocytic Jurkat cells were cultured and maintained as previously described. For each experiment 15,000 cells in 0.1 mL of medium were seeded into each well of a solid-black fluorescence 96-well plate and incubated for 24 h. The cells were then incubated with test compound (from 10 mM stock in DMSO), over a 10-fold dilution series, with concentrations ranging from 0.00001 to 100 μM and each diluent being performed in triplicate. Cells were incubated with test compound for 24 h, followed by treatment with CellTiter-Blue® solution and reading of fluorescence according to our previous protocol. Mean IC50 values were obtained by using GraphPad Prism 5 software (San Diego, CA, USA). For each concentration, three independent repeat experiments were carried out, to establish reproducibility.
# [4] = test system: MDA-MB-231 (metastatic breast) cells; assay: MTT anti-proliferative assay, MDA-MB-231; type: cell-based, human; conditions: Bcl-2 expressing, mean of three independent experiments ±SEM
# Experimental: as §1, §2
# [5] = test system: KG1a (AML) cells; assay: CellTiter-Blue cell viability assay, KG1a; type: cell-based, human; conditions: CellTitre-Blue assay, 24 h incubation, Bcl-2 +ve, mean of three independent experiments ±SEM
# Experimental: as §1, §3
# [6] = test system: Bcl-2 expressing cell lines (MDA-MB-231, HeLa and KG1a); assay: Anti-proliferative activity across Bcl-2 expressing cell lines (MDA-MB-231, HeLa, KG1a); type: cell-based; conditions: Homo sapiens; MDA-MB-231, HeLa and KG1a taken together; read-out: IC50 values against Bcl-2 expressing cell lines
# Experimental: as §1
# Human breast cancer (MDA-MB-231) and cervical cancer (HeLa) cells, obtained from the ATCC (Manassas, VA, USA), were cultured and maintained as previously described. […] Cells were incubated with the test compound for 72 h, followed by treatment with 3-[4,5-dimethylthiazol-2-yl]-2,5-diphenyl tetrazolium bromide (MTT) solution and reading of absorbance (automated microplate) according to our previous protocol. […]
# Human acute myeloid leukemia KG1a and acute T-cell lymphocytic Jurkat cells were cultured and maintained as previously described. For each experiment 15,000 cells in 0.1 mL of medium were seeded into each well of a solid-black fluorescence 96-well plate and incubated for 24 h. […]
# [7] = Homo sapiens, MDA-MB-231, 72 h incubation
# Sequence of His-tagged Bcl-2 protein (P10415 whole entry, the tested form may be a part): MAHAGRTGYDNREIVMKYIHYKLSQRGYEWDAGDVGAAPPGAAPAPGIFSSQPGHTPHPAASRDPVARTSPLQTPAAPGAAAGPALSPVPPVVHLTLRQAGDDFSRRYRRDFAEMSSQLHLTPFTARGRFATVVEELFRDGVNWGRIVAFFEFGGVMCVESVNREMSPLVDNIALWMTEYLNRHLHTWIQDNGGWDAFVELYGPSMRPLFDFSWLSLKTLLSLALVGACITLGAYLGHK
Compound,IC50 [1] [nM],IC50 [2] [nM],IC50 [3] [nM],IC50 ([4]; 72 h incubation) [nM],IC50 [5] [nM],melting point [°C],"IC50 ([2]; Homo sapiens, HeLa) [nM]","IC50 ([3]; Homo sapiens, Jurkat) [nM]","IC50 [4, 7] [nM]","IC50 ([5]; Homo sapiens, KG-1a) [nM]",Bcl-2 binding activity in the ELISA assay [1],binding potency relative to positive control gossypol ([1]; Bcl-2 ELISA binding affinity assay),IC50 [6] [nM],"inhibitory effect in the Bcl-2 negative cell line ([3]; Jurkat, Bcl-2 negative)"
"2-(1H-Indol-3-yl)-5-(5-methoxy-1H-indol-2-yl)-1,3,4-oxadiazole [Compound 4m]",840 ± 50,1190 ± 400,57400 ± 580,1790 ± 70,1870 ± 140,–,–,–,–,–,–,–,–,–
"Fc1ccc(OCc2nnc(-c3c[nH]c4ccccc34)o2)cc1 [Compound 4a, 2-(1H-Indol-3-yl)-5-(4-fluorophenoxymethyl)-1,3,4-oxadiazole]",–,–,–,–,–,210 to 212,12900 ± 1330,> 100000,36100 ± 3400,> 100000,–,–,–,–
"Cc1ccc(OCc2nnc(-c3c[nH]c4ccccc34)o2)cc1 [Compound 4b, 2-(1H-Indol-3-yl)-5-(4-methylphenoxymethyl)-1,3,4-oxadiazole]",> 100000,–,–,–,–,201 to 203,13300 ± 320,> 100000,31500 ± 4800,> 100000,inactive,–,–,–
"CC(C)(C)c1ccc(OCc2nnc(-c3c[nH]c4ccccc34)o2)cc1 [Compound 4c, 2-(1H-Indol-3-yl)-5-(4-tert-butylphenoxymethyl)-1,3,4-oxadiazole]",1170 ± 130,–,–,–,–,218 to 220,900 ± 30,> 100000,3500 ± 160,3450 ± 800,–,–,–,–
"c1ccc(OCc2nnc(-c3c[nH]c4ccccc34)o2)cc1 [Compound 4d, 2-(1H-Indol-3-yl)-5-(phenoxymethyl)-1,3,4-oxadiazole]",1410 ± 10,–,–,–,–,195 to 197,570 ± 40,> 100000,1630 ± 80,2560 ± 70,–,–,–,–
"COc1cccc(Cc2nnc(-c3c[nH]c4ccccc34)o2)c1 [Compound 4e, 2-(1H-Indol-3-yl)-5-(3-methoxybenzyl)-1,3,4-oxadiazole]",2720 ± 200,–,–,–,–,208 to 210,3140 ± 140,> 100000,6280 ± 200,3660 ± 150,–,–,–,–
"c1ccc(Cc2nnc(-c3c[nH]c4ccccc34)o2)cc1 [Compound 4f, 2-(1H-Indol-3-yl)-5-benzyl-1,3,4-oxadiazole]",–,–,–,–,–,187 to 189,> 100000,> 100000,> 100000,> 100000,–,–,–,–
"O=[N+]([O-])c1ccc(-c2nnc(-c3c[nH]c4ccccc34)o2)cc1 [Compound 4g, 2-(1H-Indol-3-yl)-5-(4-nitrophenyl)-1,3,4-oxadiazole]",–,–,–,–,–,215 to 217,1600 ± 120,> 100000,6950 ± 500,> 100000,–,–,–,–
"COc1ccc(-c2nnc(-c3c[nH]c4ccccc34)o2)cc1 [Compound 4h, 2-(1H-Indol-3-yl)-5-(4-methoxyphenyl)-1,3,4-oxadiazole]",–,–,–,–,–,210 to 212,920 ± 80,60590 ± 120,6020 ± 120,2210 ± 100,–,–,–,–
"COc1cc(-c2nnc(-c3c[nH]c4ccccc34)o2)cc(OC)c1OC [Compound 4i, 2-(1H-Indol-3-yl)-5-(3,4,5-trimethoxyphenyl)-1,3,4-oxadiazole]",21000 ± 1090,–,–,–,–,221 to 222,1220 ± 900,12200 ± 1130,1190 ± 100,975 ± 20,only moderate Bcl-2 binding activity,–,–,–
"FC(F)(F)c1ccc(-c2nnc(-c3c[nH]c4ccccc34)o2)cc1 [Compound 4j, 2-(1H-Indol-3-yl)-5-(4-trifluoromethylphenyl)-1,3,4-oxadiazole]",330 ± 50,–,–,–,–,224 to 226,880 ± 160,> 100000,520 ± 150,730 ± 90,–,two-fold more potent,520 to 880,no inhibitory effects
"Cc1ccc(-c2nnc(-c3c[nH]c4ccccc34)o2)cc1 [Compound 4k, 2-(1H-Indol-3-yl)-5-(4-methylphenyl)-1,3,4-oxadiazole]",430 ± 50,–,–,–,–,198 to 200,1280 ± 350,> 100000,920 ± 190,1470 ± 130,–,–,–,–
"c1ccc2c(-c3nnc(-c4ccc(N5CCCCC5)nc4)o3)c[nH]c2c1 [Compound 4l, 2-(1H-Indol-3-yl)-5-(6-(piperidin-1-yl)-pyridin-3-yl)-1,3,4-oxadiazole]",–,–,–,–,–,240 to 242,1520 ± 30,61400 ± 1400,2970 ± 60,4500 ± 310,–,–,–,–

# — PMC7730549, “Design, Synthesis and Evaluation of New Bioactive Oxadiazole Derivatives as Anticancer Agents Targeting Bcl-2” (International Journal of Molecular Sciences, 2020)
